Experimental data reported in patent US4713200A, “Pesticidal compounds” (Burroughs Wellcome Co., priority 1984, dated 1987).

Tests used:
Format in all cases: in vivo
[1] = test system: female Musca domestica (WRL strain); experiment: Lethal activity against house flies (topical application, with and without piperonyl butoxide); conditions: mortality after 48 hrs; for LD50 (synergised): with synergist 6 μg piperonyl butoxide per insect
Protocol: The test compound was applied with the application of the synergist (6 μg piperonyl butoxide (PB) per insect). Mortality was assessed after 48 hrs.

[2] = test system: female Culex quinquefasciatus; experiment: Knockdown activity against mosquitoes (wind tunnel spray); conditions: for KD10 min % effect: 10 min; for Kill: 24 hrs
Protocol: The knockdown activity of compounds was assessed as follows: Caged female Culex quinquefasciatus were sprayed in a wind tunnedl with 0.2 ml of a solution of the compound in odourless petroleum distillate (OPD)/dichloromethane (80/20) and knockdown was assessed at minute intervals for 10 mins. The insects were transferred to a holding cup and kept for 24 hrs with sugar/water. Mortalities were assessed at 24 hrs.

[3] = test system: Mixed sex Musca domestica; experiment: Knockdown activity against houseflies (Kearns and March chamber spray); conditions: for KD10 min % effect: 10 min
Protocol: Mixed sex Musca domestica were held in a Kearns and March chamber and sprayed with 0.2 ml of a solution of the compound in OPD/dichloromethane. Knockdown was assessed at 1 min. intervals for 10 mins.

[4] = test system: fully engorged female Boophilus microplus, susceptible strain; experiment: Activity against the cattle tick, injection; conditions: 10 μg/tick, 14 days
Protocol: The compound was supplied as a […] solution in DMSO:Acetone (1:1). Administration of the compound was by means of a microapplicator which was preset to deliver 0.2 μl of solution. The compound in solution was injected into fully engorged female Boophilus microplus, susceptible strain, at a site just lateral to the mouthparts at the rate of 10 μg/tick. Reducing the concentration reduced the dose delivered.
After injection the ticks were maintained at 24° C. and 85% RH for 14 days. At this time the ticks were examined for the presence of viable eggs which gave the percent inhibition of reproduction (% IR).

Sitophilus granarius = experiment: Activity against grain beetles (deposits on grain); conditions: 6 days
Protocol: Mortality was assessed after 6 days.

male Blattella germanica = experiment: Activity against cockroaches (deposit on glass)
Protocol: Knockdown was assessed after 10 and 60 minutes and mortality after 1 day and 6 days.

[5] = test system: Mustard Beetle (Phaedon cochleariae) second-instar larvae; experiment: Activity against mustard beetle larvae (topical application)
Protocol: Second-instar larvae were used in all the tests and compounds were applied topically to the dorsal surface of the abdomen, using a microapplicator. Between 10 and 33 larvae were used at each concentration of the chemicals. Analar acetone and Analar butanone were used as solvents. In the first tests a 0.5 μl droplet was applied to each larva but after this the droplet size was increased to 1 μl as the larvae were unaffected by the solvents.
After treatment, all the larvae (usually 20) tested at a particular concentration were confined together on turnip leaves. The leaves were placed on damp filter paper in a petri dish and covered with a second layer of filter paper in the lid of the dish.
The petri dishes were maintained in an incubator at 20° C. and 16 h light. The turnip leaves were replaced as they were eaten by the larvae.
The larvae were assessed at intervals, from 1 h to 216 h after treatment. The following categories were used to classify the larvae:
i. Healthy larvae which were feeding and moved around the dish

[6] = test system: third instar larvae of Aedes aegypti; experiment: Activity against mosquito larvae (aqueous suspension); conditions: 2.5 ppm cpd (+ 12.5 pb)
[7] = 0.1 % cpd (0.5 piperonyl butoxide)
[8] = 0.03 % cpd (0.15 piperonyl butoxide)
[9] = 0.3 % cpd (1.5 piperonyl butoxide)
[10] = 0.1 % cpd (piperonyl butoxide entry printed "^")
[11] = 500 μg/ml, 1 hour after treatment
[12] = 500 μg/ml, 20 hours after treatment
[13] = 1000 μg/ml, 1 hour after treatment
[14] = 1000 μg/ml, 20 hours after treatment

SMILES: CCC(CCC/C=C/C=C/C(=O)NCC(C)C)N(C)Cc1ccccc1 (stereo not shown) [Example 126, N--Isobutyl N'--methyl-N'--benzyl-9-aminoundeca-2E, 4E-dienamide]
- LD50 (synergised) [1]: > 20 μg/fly

SMILES: CC(C)CNC(=O)/C=C/C=C/CCCCOCCOc1cc(Cl)cc(Cl)c1 [Example 66, N--isobutyl 9-(2-(3',5'-dichlorophenoxy)-ethoxy)-nona-2E, 4E-dienamide]
- kT50 [2, 7]: 1.2 min
- KD10 min % effect [2, 7]: 96%
- Kill [2, 7]: 40%
- kT50 [3, 7]: 5.1 min
- KD10 min % effect [3, 7]: 96%

SMILES: CC(C)CNC(=O)/C=C/C=C/CCCCC(=O)Cc1cccc(C(F)(F)F)c1 [Example 122, N--Isobutyl 11-(3-trifluoromethylphenyl)-10-oxo-undeca-2E,-dienamide]
- LD50 (synergised) [1]: > 1.5 μg/fly

SMILES: CC(C)C(C)NC(=O)/C=C/C=C/CCCCOCc1ccc(OC(F)(F)F)cc1 (stereo not shown) [Example 85]
- % IR (percent inhibition of reproduction) [4]: 100%
- mortality at 10 µg/tick ([4]; Rhipicephalus microplus, 336 h, read-out: % kill): 50%

SMILES: CC(C)CNC(=O)/C=C/C=C/CCCCCCOCc1cc(C(F)(F)F)cc(C(F)(F)F)c1 [Example 4, N-isobutyl 11-(3',5'-bis-trifluoromethylbenzyloxy)-(2E,4E)-undecadienamide]
- LD50 (synergised) [1]: 0.025 μg/fly
- LD50 (unsynergised) ([1]; without synergist): 0.12 μg/fly
- % mortality (Sitophilus granarius; 50 ppm cpd (+ 500 pb)): 100%
- % mortality 1 day (male Blattella germanica; 700 mg/m^2 (+ 700 pb)): 32%
- % mortality 6 day (male Blattella germanica; 700 mg/m^2 (+ 700 pb)): 32%

SMILES: CC(C)CNC(=O)/C=C/C=C/CCCCCOCc1ccccc1 [Example 8, N-iso-butyl 10-(benzyloxy)-(2E,4E)-decadienamide]
- LD50 (synergised) [1]: > 5 μg/fly

SMILES: CC(C)CNC(=O)/C=C/C=C/CCCCOCc1cccc(C(F)(F)F)c1 [Example 2, N-isobutyl 9-(3'trifluoromethylbenzyloxy)-(2E,4E)-nonadienamide]
- LD50 (synergised) [1]: 0.2 μg/fly
- kT50 [2, 8]: 8.6 min
- KD10 min % effect [2, 8]: 56%
- Kill [2, 8]: 4%
- kT50 [2, 9]: 1.2 min
- KD10 min % effect [2, 9]: 100%
- Kill [2, 9]: 71%
- kT50 [3, 10]: 6.1 min
- KD10 min % effect [3, 10]: 86%
- Dead (number of larvae) [5, 11]: 0
- Healthy (number of larvae) [5, 11]: 0
- Paralysed (number of larvae) [5, 11]: 33
- Dead (number of larvae) [5, 12]: 24
- Healthy (number of larvae) [5, 12]: 9
- Paralysed (number of larvae) [5, 12]: 0
- Dead (number of larvae) [5, 13]: 0
- Healthy (number of larvae) [5, 13]: 0
- Paralysed (number of larvae) [5, 13]: 33
- Dead (number of larvae) [5, 14]: 29
- Healthy (number of larvae) [5, 14]: 4
- Paralysed (number of larvae) [5, 14]: 0
- % mortality (Sitophilus granarius; 20 ppm cpd (+ 100 pb)): 84%
- % mortality [6]: 100%
- % mortality 1 day (male Blattella germanica; 1400 mg/m^2 (+ 1400 pb)): 50%
- % mortality 6 day (male Blattella germanica; 1400 mg/m^2 (+ 1400 pb)): 50%

SMILES: CC(NC(=O)/C=C/C=C/CCCCCCOCc1cc(C(F)(F)F)cc(C(F)(F)F)c1)C(C)(C)C (stereo not shown) [Example 108]
- LD50 (synergised) [1]: 0.09 μg/fly

SMILES: CC(C)ONC(=O)/C=C/C=C/CCCCOCc1cccc(C(F)(F)F)c1 [Example 89]
- LD50 (synergised) [1]: > 5 μg/fly

SMILES: CC1(C)CC1NC(=O)/C=C/C=C/CCCCCCOCc1cc(C(F)(F)F)cc(C(F)(F)F)c1 (stereo not shown) [Example 109]
- LD50 (synergised) [1]: 0.09 μg/fly
